Data on 16 compounds can be found in US10072011B2, “Substituted bridged urea analogs as sirtuin modulators” (GlaxoSmithKline Intellectual Property (No.2) Limited, priority 2014, dated 2018).

Like-named read-outs stand apart in the source and are kept apart here. Bounds are passed on as bounds.

In the test the target is T1, SIRT1 (Homo sapiens, UniProt Q96EB6).
T1 sequence (Q96EB6 1-747): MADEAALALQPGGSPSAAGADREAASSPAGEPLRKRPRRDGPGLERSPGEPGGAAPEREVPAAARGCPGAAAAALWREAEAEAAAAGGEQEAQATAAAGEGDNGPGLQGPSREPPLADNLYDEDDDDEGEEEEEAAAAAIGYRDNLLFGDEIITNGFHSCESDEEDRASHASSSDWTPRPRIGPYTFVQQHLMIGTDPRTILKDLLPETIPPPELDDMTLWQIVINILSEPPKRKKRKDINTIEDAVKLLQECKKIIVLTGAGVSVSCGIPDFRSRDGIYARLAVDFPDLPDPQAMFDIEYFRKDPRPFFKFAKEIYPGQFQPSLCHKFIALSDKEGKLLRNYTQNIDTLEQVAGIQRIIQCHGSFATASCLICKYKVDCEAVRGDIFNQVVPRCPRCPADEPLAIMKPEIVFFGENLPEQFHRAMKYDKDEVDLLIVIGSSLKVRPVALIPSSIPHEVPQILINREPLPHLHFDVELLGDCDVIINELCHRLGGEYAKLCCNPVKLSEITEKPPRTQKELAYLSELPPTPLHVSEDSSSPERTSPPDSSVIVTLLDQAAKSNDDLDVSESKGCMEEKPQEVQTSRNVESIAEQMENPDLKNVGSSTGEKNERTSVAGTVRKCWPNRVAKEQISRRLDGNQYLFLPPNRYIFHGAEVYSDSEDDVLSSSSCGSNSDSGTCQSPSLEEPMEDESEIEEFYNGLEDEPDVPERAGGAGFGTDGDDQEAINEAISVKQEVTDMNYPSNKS
Briefly: Trp mass spectrometry assay of SIRT1 activation (Ac-R-H-K-K(Ac)-W-NH2 peptide). Particulars: for Emax: 25 min, read-out: TRP MAX RESP (percent maximum fold activation). Format: biochemical. In outline:
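N-terminal His-tagged human SIRT1, expressed in BL21(DE3) and purified, was incubated 25 min with an acetylated Trp peptide and NAD plus test compound at varying concentrations, then quenched with formic acid. OAADPR or deacetylated peptide was quantified by mass spectrometry versus compound-free control; EC1.5 is the concentration giving 50% activity increase, with percent maximum activation.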

Setting [1] is: Trp peptide 0.5 μM, 120 μM βNAD+, 10 nM SIRT1, 25 min at 25° C., relative to control (100%).
[2] abbreviates: Trp peptide 0.5 μM, 120 μM βNAD+, 10 nM SIRT1, 25 min at 25° C.

In the case of `O=C(O)c1ccnc(NC(=O)N2c3nc(C(=O)NCC(F)(F)F)ccc3N3CC[C@H]2C3)c1` [Example 267, 2-((4S)-7-((2,2,2-trifluoroethyl)carbamoyl)-2,3,4,5-tetrahydro-1,4-methanopyrido[2,3-b][1,4]diazepine-5-carboxamido)isonicotinic acid], the Emax under setting [1] is greater than 150%. The “TRP Activity (EC1.5, concentration of test compound that results in 150% activation of SIRT1)” value under setting [2] is recorded as “B (EC1.5 1-25 μM)”.

On to `C[C@@H](NC(=O)c1ccc2c(n1)N(C(=O)Nc1cc(OCCN(C)C)ccn1)[C@H]1CCN2C1)C(F)(F)F` [Example 268, (4S)—N5-(4-(2-(dimethylamino)ethoxy)pyridin-2-yl)-N7-((R)-1,1,1-trifluoropropan-2-yl)-3,4-dihydro-1,4-methanopyrido[2,3-b][1,4]diazepine-5,7(2H)-dicarboxamide], for which the Emax under setting [1] is greater than 150%. Moreover, the “TRP Activity (EC1.5, concentration of test compound that results in 150% activation of SIRT1)” value under setting [2] is recorded as “B (EC1.5 1-25 μM)”.

With `Cc1nc(NC(=O)N2c3nc(C(=O)N[C@H](C)C(F)(F)F)ccc3N3CC[C@H]2C3)ccc1F` [Example 269, (4S)—N5-(5-fluoro-6-methylpyridin-2-yl)-N7-((R)-1,1,1-trifluoropropan-2-yl)-3,4-dihydro-1,4-methanopyrido[2,3-b][1,4]diazepine-5,7(2H)-dicarboxamide], under setting [1], the Emax was greater than 150%. Further, the “TRP Activity (EC1.5, concentration of test compound that results in 150% activation of SIRT1)” value under setting [2] is “A (EC1.5<1 μM)”.

`O=C(NCC(F)(F)F)c1ccc2c(n1)N(C(=O)Nc1cccc[n+]1[O-])[C@H]1CC[N+]2([O-])C1` [Example 275, (4S)-5-((1-oxidopyridin-2-yl)carbamoyl)-7-((2,2,2-trifluoroethyl)carbamoyl)-2,3,4,5-tetrahydro-1H-1,4-methanopyrido[2,3-b][1, 4]diazepine 1-oxide]: the Emax under setting [1] is greater than 150%. Besides, the “TRP Activity (EC1.5, concentration of test compound that results in 150% activation of SIRT1)” value under setting [2] was “C (EC1.5>25 μM)”.

On to `C[C@@H](NC(=O)c1ccc2c(n1)N(C(=O)Cc1ccccn1)[C@H]1CCN2C1)C(F)(F)F` [Example 276, (4S)-5-(2-(pyridin-2-yl)acetyl)-N—((R)-1,1,1-trifluoropropan-2-yl)-2,3,4,5-tetrahydro-1,4-methanopyrido[2,3-b][1,4]diazepine-7-carboxamide], for which the Emax under setting [1] was less than 150%. Besides, under setting [2], the “TRP Activity (EC1.5, concentration of test compound that results in 150% activation of SIRT1)” value is on record as “C (EC1.5>25 μM)”.

As to `O=C(Nc1ccc(Cl)cn1)N1c2nc(S(=O)(=O)NCC(F)(F)F)ccc2N2CC[C@H]1C2` [Example 277, (4S)—N-(5-chloropyridin-2-yl)-7-(N-(2,2,2-trifluoroethyl)sulfamoyl)-3,4-dihydro-1,4-methanopyrido[2,3-b][1,4]diazepine-5(2H)-carboxamide], the Emax is less than 150%. The “TRP Activity (EC1.5, concentration of test compound that results in 150% activation of SIRT1)” value under setting [2] was “C (EC1.5>25 μM)”.

On to `O=C(OCC(F)(F)F)c1ccc2c(n1)N(C(=O)Nc1ccccn1)[C@H]1CCN2C1` [Example 278, (4S)-2,2,2-trifluoroethyl 5-(pyridin-2-ylcarbamoyl)-2,3,4,5-tetrahydro-1,4-methanopyrido[2,3-b][1,4]diazepine-7-carboxylate], for which the Emax under setting [1] is greater than 150%. Moreover, under setting [2], the “TRP Activity (EC1.5, concentration of test compound that results in 150% activation of SIRT1)” value was “B (EC1.5 1-25 μM)”.

As to `O=C(NCC(F)(F)F)c1nc2c(cc1Cl)N1CC[C@@H](C1)N2C(=O)Nc1ccccn1` [Example 279, (4S)-8-chloro-N5-(pyridin-2-yl)-N7-(2,2,2-trifluoroethyl)-3,4-dihydro-1,4-methanopyrido[2,3-b][1,4]diazepine-5,7(2H)-dicarboxamide], the Emax under setting [1] was greater than 150%. Further, the “TRP Activity (EC1.5, concentration of test compound that results in 150% activation of SIRT1)” value under setting [2] is “A (EC1.5<1 μM)”.

For `C[C@@H](NC(=O)c1nc2c(cc1Cl)N1CC[C@@H](C1)N2C(=O)Nc1ccccn1)C(F)(F)F` [Example 280, (4S)-8-chloro-N5-(pyridin-2-yl)-N7-((R)-1,1,1-trifluoropropan-2-yl)-3,4-dihydro-1,4-methanopyrido[2,3-b][1,4]diazepine-5,7(2H)-dicarboxamide], the Emax under setting [1] is greater than 150%. Moreover, the “TRP Activity (EC1.5, concentration of test compound that results in 150% activation of SIRT1)” value under setting [2] was “A (EC1.5<1 μM)”.

On to `Cc1ncc(-c2ccnc(NC(=O)N3c4nc(C(=O)N[C@H](C)C(F)(F)F)c(Cl)cc4N4CC[C@H]3C4)c2)o1` [Example 281, (4S)-8-chloro-N5-(4-(2-methyloxazol-5-yl)pyridin-2-yl)-N7-((R)-1,1,1-trifluoropropan-2-yl)-3,4-dihydro-1,4-methanopyrido[2,3-b][1,4]diazepine-5,7(2H)-dicarboxamide], for which, under setting [1], the Emax was greater than 150%. In addition, under setting [2], the “TRP Activity (EC1.5, concentration of test compound that results in 150% activation of SIRT1)” value is reported as “B (EC1.5 1-25 μM)”.

On to `C[C@@H](NC(=O)c1nc2c(cc1Cl)N1CC[C@@H](C1)N2C(=O)Nc1cc(-c2cnco2)ccn1)C(F)(F)F` [Example 282, (4S)-8-chloro-N5-(4-(oxazol-5-yl)pyridin-2-yl)-N7-((R)-1,1,1-trifluoropropan-2-yl)-3,4-dihydro-1,4-methanopyrido[2,3-b][1,4]diazepine-5,7(2H)-dicarboxamide], for which, under setting [1], the Emax was greater than 150%. The “TRP Activity (EC1.5, concentration of test compound that results in 150% activation of SIRT1)” value under setting [2] is on record as “A (EC1.5<1 μM)”.

Take `C[C@@H](NC(=O)c1nc2c(cc1F)N1CC[C@@H](C1)N2C(=O)Nc1cc(OC[C@H](O)CO)ccn1)C(F)(F)F` [Example 283, (4S)—N5-(4-((R)-2,3-dihydroxypropoxy)pyridin-2-yl)-8-fluoro-N7-((R)-1,1,1-trifluoropropan-2-yl)-3,4-dihydro-1,4-methanopyrido[2,3-b][1,4]diazepine-5,7(2H)-dicarboxamide]: the Emax under setting [1] is greater than 150%. For the same compound, under setting [2], the “TRP Activity (EC1.5, concentration of test compound that results in 150% activation of SIRT1)” value is listed as “A (EC1.5<1 μM)”.

Consider `COc1cc2c(nc1C(=O)NCC(F)(F)F)N(C(=O)Nc1ccccn1)[C@H]1CCN2C1` [Example 284, (4S)-8-methoxy-N5-(pyridin-2-yl)-N7-(2,2,2-trifluoroethyl)-3,4-dihydro-1,4-methanopyrido[2,3-b][1,4]diazepine-5,7(2H)-dicarboxamide], for which the Emax under setting [1] was greater than 150%. Under setting [2], the “TRP Activity (EC1.5, concentration of test compound that results in 150% activation of SIRT1)” value is “A (EC1.5<1 μM)”.

Regarding `O=C(NCC(F)(F)F)c1nc2c(cc1O)N1CC[C@@H](C1)N2C(=O)Nc1ccccn1` [Example 285, (4S)-8-hydroxy-N5-(pyridin-2-yl)-N7-(2,2,2-trifluoroethyl)-3,4-dihydro-1,4-methanopyrido[2,3-b][1,4]diazepine-5,7(2H)-dicarboxamide], the Emax under setting [1] is greater than 150%. Under setting [2], the “TRP Activity (EC1.5, concentration of test compound that results in 150% activation of SIRT1)” value is on record as “A (EC1.5<1 μM)”.

Regarding `COc1cc(C(=O)NCC(F)(F)F)nc2c1N1CC[C@@H](C1)N2C(=O)Nc1ccccn1` [Example 286, (4S)-9-methoxy-N5-(pyridin-2-yl)-N7-(2,2,2-trifluoroethyl)-3,4-dihydro-1,4-methanopyrido[2,3-b][1,4]diazepine-5,7(2H)-dicarboxamide], the Emax is greater than 150%. In addition, under setting [2], the “TRP Activity (EC1.5, concentration of test compound that results in 150% activation of SIRT1)” value is “A (EC1.5<1 μM)”.

Consider `Cc1cc(C(=O)NCC(F)(F)F)nc2c1N1CC[C@@H](C1)N2C(=O)Nc1ccccn1` [Example 287, (4S)-9-methyl-N5-(pyridin-2-yl)-N7-(2,2,2-trifluoroethyl)-3,4-dihydro-1,4-methanopyrido[2,3-b][1,4]diazepine-5,7(2H)-dicarboxamide], for which the Emax under setting [1] was greater than 150%. For the same compound, the “TRP Activity (EC1.5, concentration of test compound that results in 150% activation of SIRT1)” value under setting [2] is given as “A (EC1.5<1 μM)”.
